# Laboratory results taken from US20260232767A1, “INTERLEUKIN-23 RECEPTOR ANTAGONIST PEPTIDES FOR USE IN THE TREATMENT OF PSORIASIS” (Janssen Pharmaceutica NV, priority 2023, published 2026).
# Test system: subjects with moderate-to-severe plaque psoriasis
# Experiment: IGA score, Example 2
# Format: in vivo, human
# Conditions: for Subjects achieving IGA Score = 0 at Week 52 / Subjects achieving IGA Score = 0 or 1 at Week 52: non-responder imputation
# Source text: Described below is a multicenter, long-term extension (LTE), double-blind, dose-ranging, parallel group interventional study in participants from Example 1 to evaluate the long-term efficacy and safety of the hydrochloride salt of the compound of Formula (I) for the treatment of moderate-to-severe plaque psoriasis. Patients from Example 1 continued to receive the same dose of the compound of Formula (I) for an additional 36-week treatment period with a 4-week safety follow up period after the last administration of the compound of Formula (I). Patients randomized to placebo in Example 1 received the compound of Formula (I) at a dose of 100 mg QD starting at Week 16 of Example 1 (FIG. 21).
# Secondary endpoints included additional change from baseline of Example 1 in PASI, IGA, and PSSD at Week 52, including the proportions of subjects that achieved PAST 90, PAST 100, an IGA score of cleared (0) or minimal (1), PSSD symptoms score=0, and PSSD signs score=0.
# [1] = Placebo → 100 mg QD, crossed over at or after Week 16
smiles,measurement,setting,value
"CC(=O)NCCCC[C@@H]1NC(=O)[C@H](Cc2c[nH]c3c(C)cccc23)NC(=O)[C@H]([C@@H](C)O)NC(=O)[C@H](CC(N)=O)NC(=O)[C@@H](NC(C)=O)C(C)(C)SSC(C)(C)[C@@H](C(=O)N[C@@H](Cc2ccc(OCCN)cc2)C(=O)N[C@@H](Cc2ccc3ccccc3c2)C(=O)NC2(C(=O)N[C@@H](CCC(=O)O)C(=O)N[C@@H](CC(N)=O)C(=O)N[C@@H](Cc3cccnc3)C(=O)N(C)CC(N)=O)CCOCC2)NC1=O [IL-23 receptor antagonist peptide, Ac-[Pen]*-N-T-[W(7-Me)]-[Lys(Ac)]-[Pen]*-Phe[4-(2-aminoethoxy)]-[2-Nal]-[THP]-E-N-[3-Pal]-Sarc-NH2 (*[Pen]-[Pen]* formdisulfidebond)]",Subjects achieving IGA Score = 0 at Week 52,25 mg BID,(19.5%)
same,Subjects achieving IGA Score = 0 or 1 at Week 52,25 mg BID,(46.3%)
same,Subjects achieving IGA Score = 0 at Week 52,25 mg QD,(14.0%)
same,Subjects achieving IGA Score = 0 or 1 at Week 52,25 mg QD,(37.2%)
same,Subjects achieving IGA Score = 0 at Week 52,50 mg QD,(23.3%)
same,Subjects achieving IGA Score = 0 or 1 at Week 52,50 mg QD,(60.5%)
same,Subjects achieving IGA Score = 0 at Week 52,[1],11 (31.4%)
same,Subjects achieving IGA Score = 0 or 1 at Week 52,[1],23 (65.7%)
same,"IGA Score ≤2 (‘Mild’or better), subjects (%)","Week 1, 25 mg BID, N=41",(7.3%)
same,"IGA Score ≤2 (‘Mild’or better), subjects (%)","Week 1, 25 mg QD, N=43",(14.0%)
same,"IGA Score = 0 (‘Cleared’) or 1 (‘Minimal’), subjects (%)","Week 1, 50 mg QD, N=43",(2.3%)
same,"IGA Score ≤2 (‘Mild’or better), subjects (%)","Week 1, 50 mg QD, N=43",(16.3%)
same,"IGA Score = 0 (‘Cleared’) or 1 (‘Minimal’), subjects (%)","Week 1, 100 mg BID, N=42",(2.4%)
same,"IGA Score ≤2 (‘Mild’or better), subjects (%)","Week 1, 100 mg BID, N=42",(23.8%)
same,"IGA Score = 0 (‘Cleared’) or 1 (‘Minimal’), subjects (%)","Week 1, 100 mg QD, N=43",(4.7%)
same,"IGA Score ≤2 (‘Mild’or better), subjects (%)","Week 1, 100 mg QD, N=43",(9.3%)
same,"IGA Score = 0 (‘Cleared’) or 1 (‘Minimal’), subjects (%)","Week 2, 25 mg BID, N=41",(2.4%)
same,"IGA Score ≤2 (‘Mild’or better), subjects (%)","Week 2, 25 mg BID, N=41",(22.0%)
same,"IGA Score ≤2 (‘Mild’or better), subjects (%)","Week 2, 25 mg QD, N=43",(20.9%)
same,"IGA Score = 0 (‘Cleared’) or 1 (‘Minimal’), subjects (%)","Week 2, 50 mg QD, N=43",(7.0%)
same,"IGA Score ≤2 (‘Mild’or better), subjects (%)","Week 2, 50 mg QD, N=43",(34.9%)
same,"IGA Score = 0 (‘Cleared’) or 1 (‘Minimal’), subjects (%)","Week 2, 100 mg BID, N=42",(9.5%)
same,"IGA Score ≤2 (‘Mild’or better), subjects (%)","Week 2, 100 mg BID, N=42",(33.3%)
same,"IGA Score = 0 (‘Cleared’) or 1 (‘Minimal’), subjects (%)","Week 2, 100 mg QD, N=43",(4.7%)
same,"IGA Score ≤2 (‘Mild’or better), subjects (%)","Week 2, 100 mg QD, N=43",(34.9%)
same,"IGA Score = 0 (‘Cleared’) or 1 (‘Minimal’), subjects (%)","Week 4, 25 mg BID, N=41",(17.1%)
same,"IGA Score ≤2 (‘Mild’or better), subjects (%)","Week 4, 25 mg BID, N=41",(51.2%)
same,"IGA Score = 0 (‘Cleared’) or 1 (‘Minimal’), subjects (%)","Week 4, 25 mg QD, N=43",(9.3%)
same,"IGA Score ≤2 (‘Mild’or better), subjects (%)","Week 4, 25 mg QD, N=43",(44.2%)
same,"IGA Score = 0 (‘Cleared’) or 1 (‘Minimal’), subjects (%)","Week 4, 50 mg QD, N=43",(16.3%)
same,"IGA Score ≤2 (‘Mild’or better), subjects (%)","Week 4, 50 mg QD, N=43",(48.8%)
same,"IGA Score = 0 (‘Cleared’) or 1 (‘Minimal’), subjects (%)","Week 4, 100 mg BID, N=42",(38.1%)
same,"IGA Score ≤2 (‘Mild’or better), subjects (%)","Week 4, 100 mg BID, N=42",(69.0%)
same,"IGA Score = 0 (‘Cleared’) or 1 (‘Minimal’), subjects (%)","Week 4, 100 mg QD, N=43",(20.9%)
same,"IGA Score ≤2 (‘Mild’or better), subjects (%)","Week 4, 100 mg QD, N=43",(65.1%)
same,"IGA Score = 0 (‘Cleared’) or 1 (‘Minimal’), subjects (%)","Week 8, 25 mg BID, N=41",(26.8%)
same,"IGA Score = 0 (‘Cleared’), subjects (%)","Week 8, 25 mg BID, N=41",(4.9%)
same,"IGA Score ≤2 (‘Mild’or better), subjects (%)","Week 8, 25 mg BID, N=41",(73.2%)
same,"IGA Score = 0 (‘Cleared’) or 1 (‘Minimal’), subjects (%)","Week 8, 25 mg QD, N=43",(27.9%)
same,"IGA Score = 0 (‘Cleared’), subjects (%)","Week 8, 25 mg QD, N=43",(2.3%)
same,"IGA Score ≤2 (‘Mild’or better), subjects (%)","Week 8, 25 mg QD, N=43",(55.8%)
same,"IGA Score = 0 (‘Cleared’) or 1 (‘Minimal’), subjects (%)","Week 8, 50 mg QD, N=43",(44.2%)
same,"IGA Score = 0 (‘Cleared’), subjects (%)","Week 8, 50 mg QD, N=43",(4.7%)
same,"IGA Score ≤2 (‘Mild’or better), subjects (%)","Week 8, 50 mg QD, N=43",(74.4%)
same,"IGA Score = 0 (‘Cleared’) or 1 (‘Minimal’), subjects (%)","Week 8, 100 mg BID, N=42",(64.3%)
same,"IGA Score = 0 (‘Cleared’), subjects (%)","Week 8, 100 mg BID, N=42",(19.0%)
same,"IGA Score ≤2 (‘Mild’or better), subjects (%)","Week 8, 100 mg BID, N=42",(78.6%)
same,"IGA Score = 0 (‘Cleared’) or 1 (‘Minimal’), subjects (%)","Week 8, 100 mg QD, N=43",(46.5%)
same,"IGA Score = 0 (‘Cleared’), subjects (%)","Week 8, 100 mg QD, N=43",(9.3%)
same,"IGA Score ≤2 (‘Mild’or better), subjects (%)","Week 8, 100 mg QD, N=43",(72.1%)
same,"IGA Score = 0 (‘Cleared’) or 1 (‘Minimal’), subjects (%)","Week 12, 25 mg BID, N=41",(43.9%)
same,"IGA Score = 0 (‘Cleared’), subjects (%)","Week 12, 25 mg BID, N=41",(7.3%)
same,"IGA Score ≤2 (‘Mild’or better), subjects (%)","Week 12, 25 mg BID, N=41",(78.0%)
same,"IGA Score = 0 (‘Cleared’) or 1 (‘Minimal’), subjects (%)","Week 12, 25 mg QD, N=43",(25.6%)
same,"IGA Score = 0 (‘Cleared’), subjects (%)","Week 12, 25 mg QD, N=43",(7.0%)
same,"IGA Score ≤2 (‘Mild’or better), subjects (%)","Week 12, 25 mg QD, N=43",(72.1%)
same,"IGA Score = 0 (‘Cleared’) or 1 (‘Minimal’), subjects (%)","Week 12, 50 mg QD, N=43",(51.2%)
same,"IGA Score = 0 (‘Cleared’), subjects (%)","Week 12, 50 mg QD, N=43",(9.3%)
same,"IGA Score ≤2 (‘Mild’or better), subjects (%)","Week 12, 50 mg QD, N=43",(81.4%)
same,"IGA Score = 0 (‘Cleared’) or 1 (‘Minimal’), subjects (%)","Week 12, 100 mg BID, N=42",(66.7%)
same,"IGA Score = 0 (‘Cleared’), subjects (%)","Week 12, 100 mg BID, N=42",(40.5%)
same,"IGA Score ≤2 (‘Mild’or better), subjects (%)","Week 12, 100 mg BID, N=42",(85.7%)
same,"IGA Score = 0 (‘Cleared’) or 1 (‘Minimal’), subjects (%)","Week 12, 100 mg QD, N=43",(53.5%)
same,"IGA Score = 0 (‘Cleared’), subjects (%)","Week 12, 100 mg QD, N=43",(18.6%)
same,"IGA Score ≤2 (‘Mild’or better), subjects (%)","Week 12, 100 mg QD, N=43",(81.4%)
same,"IGA Score = 0 (‘Cleared’) or 1 (‘Minimal’), subjects (%)","Week 16, 25 mg BID, N=41",(51.2%)
same,"IGA Score = 0 (‘Cleared’), subjects (%)","Week 16, 25 mg BID, N=41",(14.6%)
same,"IGA Score ≤2 (‘Mild’or better), subjects (%)","Week 16, 25 mg BID, N=41",(73.2%)
same,"IGA Score = 0 (‘Cleared’) or 1 (‘Minimal’), subjects (%)","Week 16, 25 mg QD, N=43",(39.5%)
same,"IGA Score = 0 (‘Cleared’), subjects (%)","Week 16, 25 mg QD, N=43",(16.3%)
same,"IGA Score ≤2 (‘Mild’or better), subjects (%)","Week 16, 25 mg QD, N=43",(67.4%)
same,"IGA Score = 0 (‘Cleared’) or 1 (‘Minimal’), subjects (%)","Week 16, 50 mg QD, N=43",(58.1%)
same,"IGA Score = 0 (‘Cleared’), subjects (%)","Week 16, 50 mg QD, N=43",(34.9%)
same,"IGA Score ≤2 (‘Mild’or better), subjects (%)","Week 16, 50 mg QD, N=43",(81.4%)
same,"IGA Score = 0 (‘Cleared’) or 1 (‘Minimal’), subjects (%)","Week 16, 100 mg BID, N=42",(64.3%)
same,"IGA Score = 0 (‘Cleared’), subjects (%)","Week 16, 100 mg BID, N=42",(45.2%)
same,"IGA Score ≤2 (‘Mild’or better), subjects (%)","Week 16, 100 mg BID, N=42",(81.0%)
same,"IGA Score = 0 (‘Cleared’) or 1 (‘Minimal’), subjects (%)","Week 16, 100 mg QD, N=43",(62.8%)
same,"IGA Score = 0 (‘Cleared’), subjects (%)","Week 16, 100 mg QD, N=43",(27.9%)
same,"IGA Score ≤2 (‘Mild’or better), subjects (%)","Week 16, 100 mg QD, N=43",(79.1%)
same,"IGA Score = 0 (‘Cleared’) or 1 (‘Minimal’), subjects (%)","Week 20, 25 mg BID, N=41",(48.8%)
same,"IGA Score = 0 (‘Cleared’), subjects (%)","Week 20, 25 mg BID, N=41",(19.5%)
same,"IGA Score ≤2 (‘Mild’or better), subjects (%)","Week 20, 25 mg BID, N=41",(75.6%)
same,"IGA Score = 0 (‘Cleared’) or 1 (‘Minimal’), subjects (%)","Week 20, 25 mg QD, N=43",(44.2%)
same,"IGA Score = 0 (‘Cleared’), subjects (%)","Week 20, 25 mg QD, N=43",(14.0%)
same,"IGA Score ≤2 (‘Mild’or better), subjects (%)","Week 20, 25 mg QD, N=43",(65.1%)
same,"IGA Score = 0 (‘Cleared’) or 1 (‘Minimal’), subjects (%)","Week 20, 50 mg QD, N=43",(55.8%)
same,"IGA Score = 0 (‘Cleared’), subjects (%)","Week 20, 50 mg QD, N=43",(20.9%)
same,"IGA Score ≤2 (‘Mild’or better), subjects (%)","Week 20, 50 mg QD, N=43",(81.4%)
same,"IGA Score = 0 (‘Cleared’) or 1 (‘Minimal’), subjects (%)","Week 20, 100 mg BID, N=42",(61.9%)
same,"IGA Score = 0 (‘Cleared’), subjects (%)","Week 20, 100 mg BID, N=42",(42.9%)
same,"IGA Score ≤2 (‘Mild’or better), subjects (%)","Week 20, 100 mg BID, N=42",(81.0%)
same,"IGA Score = 0 (‘Cleared’) or 1 (‘Minimal’), subjects (%)","Week 20, 100 mg QD, N=43",(58.1%)
same,"IGA Score = 0 (‘Cleared’), subjects (%)","Week 20, 100 mg QD, N=43",(16.3%)
